Measurements taken from patent US12509434B2, “Optically resolved Trolox intermediate and method for producing same” (PTC THERAPEUTICS, INC., priority 2020, dated 2025).

What was measured:
[1] = Solubility of the crystals in amide-based solvents NMP and DMA (reslurry, content of supernatant solution); type: physicochemical; conditions: 20 °C
Procedure: Solubility of R-Trolox⋅R-PEA, S-Trolox⋅R-PEA, and S-Trolox to NMP and DMA
Each crystal was reslurried by adding an amide-based solvent (NMP, DMA). The solubility was calculated from analyzing the content of supernatant solution of each reaction solution at each temperature.

[2] = Solubility of the crystals in ethyl acetate solvent (reslurry, content of supernatant solution); type: physicochemical
Procedure: Solubility of RS-Trolox⋅R-PEA, R-Trolox⋅R-PEA, and S-Trolox⋅R-PEA to Ethyl Acetate Solvent
Each crystal was reslurried by adding ethyl acetate. The solubility was calculated from analyzing the content of supernatant solution of each reaction solution at each temperature.

| SMILES | Solubility [%] DMA [1] [%] | Solubility [%] NMP [1] [%] | Solubility to ethyl acetate solvent ([2]; 0 °C) [%] | Solubility to ethyl acetate solvent ([2]; 15 °C) [%] | Solubility to ethyl acetate solvent ([2]; 30 °C) [%] | Solubility to ethyl acetate solvent ([2]; 45 °C) [%] | Solubility to ethyl acetate solvent ([2]; 60 °C) [%] | Solubility to ethyl acetate solvent ([2]; 75 °C) [%] |
| --- | --- | --- | --- | --- | --- | --- | --- | --- |
| Cc1c(C)c2c(c(C)c1O)CC[C@@](C)(C(=O)O)O2 [S-Trolox (Free), (S)-6-hydroxy-2,5,7,8-tetramethylchroman-2-carboxylic acid] | ≥10 | ≥10 |  |  |  |  |  |  |
| C[C@@H](N)c1ccccc1.Cc1c(C)c2c(c(C)c1O)CC[C@@](C)(C(=O)O)O2 [S-Trolox] | ≥10 | ≥10 | 2.6 | 9.9 | 14.2 |  |  |  |
| Cc1c(C)c2c(c(C)c1O)CC[C@](C)(C(=O)O)O2 [R-Trolox] | 0.4 | 0.5 | 0.07 | 0.09 | 0.10 | 0.40 | 0.78 | 0.83 |
| C[C@@H](N)c1ccccc1.Cc1c(C)c2c(c(C)c1O)CCC(C)(C(=O)O)O2 (racemic) [rac-Trolox] |  |  | 0.02 | 0.02 | 0.07 | 0.38 | 1.08 | 2.82 |
